Assay results taken from patent US20190248779A1, “COMPOUNDS, COMPOSITIONS, AND METHODS FOR INCREASING CFTR ACTIVITY” (Proteostasis Therapeutics, Inc., priority 2016, published 2019).

Target: T1, ΔF508-CFTR (Homo sapiens, UniProt P13569, DEL508-508)
T1 construct: Primary lung epithelial cells homozygous for the Cystic Fibrosis-causing ΔF508 mutation were differentiated for a minimum of 4 weeks; endogenous in cells; host or cells: primary lung (bronchial) epithelial cells (hBE) homozygous for ΔF508, differentiated at an air-liquid interface
Test: hBE equivalent current (Ieq) assay
Format: cell-based
Conditions: 24 h, relative to a CFTR amplifier at 3 uM, AUC of equivalent chloride current, primary lung epithelial cells homozygous for ΔF508; for Activity 3 μM: compound at 3 μM; for Activity 10 μM: compound at 10 μM
Procedure: ii. hBE Equivalent Current (Ieq) Assay
Primary lung epithelial cells homozygous for the Cystic Fibrosis-causing ΔF508 mutation were differentiated for a minimum of 4 weeks in an air-liquid interface on Costar 24 well HTS filter plates prior to the equivalent current (Ieq) measurements. Cells were apically mucus-washed for 30 minutes 24 h prior to treatment with compounds. The basolateral media was removed and replaced with media containing the compound of interest diluted to its final concentration from DMSO stocks. Treated cells were incubated at 37° C. and 5% CO2 for 24 hours. At the end of the treatment period, the media was changed to the Ieq experimental solution for 2 hours before the experiment and plates are maintained in a CO2-free incubator during this period. The plates containing the cells were then placed in pre-warmed heating blocks at 36° C.±0.5 for 15 minutes before measurements are taken. The transepithelial voltage (VT) and conductance (GT) were measured using a custom 24 channel current clamp (TECC-24) with 24 well electrode manifold. The Ieq assay measurements were made following additions with standardized time periods:
1. The baseline VT and GT values were measured for approximately 20 minutes.
2. Benzamil was added to block ENaC for 15 minutes.
3. Forskolin plus VX-770 were added to maximally activate ΔF508-CFTR for 27 minutes.
4. Bumetanide was added to inhibit the NaK2Cl cotransporter and shut-off secretion of chloride.
The activity data captured was the area under the curve (AUC) for the traces of the equivalent chloride current. The AUC was collected from the time of the forskolin/VX-770 addition until the inhibition by bumetanide addition. Correction in response to compound treatment was scored as the increase in the AUC for compound-treated samples over that of vehicle-treated samples.
The results are shown below in Table 1. + indicates activity <150% of a CFTR amplifier with compound at concentration shown and amplifier at 3 uM; ++ indicates activity >150% of a CFTR amplifier with compound at concentration shown and amplifier at 3 uM.

T1 sequence (P13569 with tags, fused parts or gaps DEL508-508): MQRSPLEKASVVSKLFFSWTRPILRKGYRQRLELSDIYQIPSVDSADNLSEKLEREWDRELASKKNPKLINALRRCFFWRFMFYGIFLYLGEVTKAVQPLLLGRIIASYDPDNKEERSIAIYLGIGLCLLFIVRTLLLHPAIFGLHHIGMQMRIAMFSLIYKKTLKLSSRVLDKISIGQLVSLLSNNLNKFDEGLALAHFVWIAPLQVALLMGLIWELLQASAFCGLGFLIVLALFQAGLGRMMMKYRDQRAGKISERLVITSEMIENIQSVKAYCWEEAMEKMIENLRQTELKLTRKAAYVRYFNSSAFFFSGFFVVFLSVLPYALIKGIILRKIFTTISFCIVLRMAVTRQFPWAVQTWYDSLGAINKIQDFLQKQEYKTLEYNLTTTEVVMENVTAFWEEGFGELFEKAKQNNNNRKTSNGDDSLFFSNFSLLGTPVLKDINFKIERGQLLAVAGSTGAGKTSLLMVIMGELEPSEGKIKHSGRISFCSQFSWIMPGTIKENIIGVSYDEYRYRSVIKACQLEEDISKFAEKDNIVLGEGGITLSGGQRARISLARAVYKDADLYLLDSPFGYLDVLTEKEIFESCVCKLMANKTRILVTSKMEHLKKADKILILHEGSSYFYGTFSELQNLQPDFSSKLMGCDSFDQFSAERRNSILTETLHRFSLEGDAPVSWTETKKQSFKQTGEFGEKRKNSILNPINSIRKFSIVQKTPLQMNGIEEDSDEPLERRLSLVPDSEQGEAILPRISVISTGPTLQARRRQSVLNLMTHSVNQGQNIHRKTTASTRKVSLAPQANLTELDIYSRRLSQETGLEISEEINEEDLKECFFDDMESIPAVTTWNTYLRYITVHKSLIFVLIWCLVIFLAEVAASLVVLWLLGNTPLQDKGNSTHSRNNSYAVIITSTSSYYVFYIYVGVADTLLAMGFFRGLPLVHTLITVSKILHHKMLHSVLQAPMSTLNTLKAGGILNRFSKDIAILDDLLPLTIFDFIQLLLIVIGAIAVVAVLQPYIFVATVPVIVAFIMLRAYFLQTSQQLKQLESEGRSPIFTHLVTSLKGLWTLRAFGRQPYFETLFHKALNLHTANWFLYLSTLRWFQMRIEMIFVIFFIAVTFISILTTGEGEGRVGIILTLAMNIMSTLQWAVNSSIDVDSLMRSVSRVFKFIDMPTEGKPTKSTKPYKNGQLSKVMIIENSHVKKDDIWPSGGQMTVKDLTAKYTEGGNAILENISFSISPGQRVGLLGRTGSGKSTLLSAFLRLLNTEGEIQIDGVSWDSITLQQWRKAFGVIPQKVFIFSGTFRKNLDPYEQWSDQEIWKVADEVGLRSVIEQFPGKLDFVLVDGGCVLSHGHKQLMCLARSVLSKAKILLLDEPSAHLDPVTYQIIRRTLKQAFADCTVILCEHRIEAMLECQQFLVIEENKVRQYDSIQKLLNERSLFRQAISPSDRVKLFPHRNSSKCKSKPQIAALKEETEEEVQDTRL

In the case of `COc1cncc(-c2ccc(=O)n(C(C)C(=O)Nc3ccc(C(F)(F)F)cc3)n2)c1` (stereo not shown) [Compound 20, 2-(3-(5-Methoxypyridin-3-yl)-6-oxopyridazin-1(6H)-yl)-N-(4-(trifluoromethyl)phenyl)propanamide], the “Activity 3 μM” value is reported as “++ (activity >150% of a CFTR amplifier with compound at concentration shown and amplifier at 3 uM)” and the “Activity 10 μM” value is reported as “++ (activity >150% of a CFTR amplifier with compound at concentration shown and amplifier at 3 uM)”.
With `COc1ccnc(-c2ccc(=O)n(C(C)C(=O)Nc3ccc(C(F)(F)F)cc3)n2)c1` (stereo not shown) [Compound 21, 2-(3-(4-Methoxypyridin-2-yl)-6-oxopyridazin-1(6H)-yl)-N-(4-(trifluoromethyl)phenyl)propanamide] the “Activity 10 μM” value was “+ (activity <150% of a CFTR amplifier with compound at concentration shown and amplifier at 3 uM)”.
For `COc1cccc(-c2ccc(=O)n(C(C)C(=O)Nc3ccc(C(F)(F)F)cc3)n2)n1` (stereo not shown) [Compound 22, 2-(3-(6-Methoxypyridin-2-yl)-6-oxopyridazin-1(6H)-yl)-N-(4-(trifluoromethyl)phenyl)propanamide], the “Activity 3 μM” value was “++ (activity >150% of a CFTR amplifier with compound at concentration shown and amplifier at 3 uM)” and the “Activity 10 μM” value was “+ (activity <150% of a CFTR amplifier with compound at concentration shown and amplifier at 3 uM)”.
In the case of `CC(C(=O)Nc1ccc(C(F)(F)F)cc1)n1nc(-c2cc(Cl)cs2)ccc1=O` (stereo not shown) [Compound 23, 2-(3-(4-Chlorothiophen-2-yl)-6-oxopyridazin-1(6H)-yl)-N-(4-(trifluoromethyl)phenyl)propanamide], the “Activity 10 μM” value is reported as “++ (activity >150% of a CFTR amplifier with compound at concentration shown and amplifier at 3 uM)”.
With `CC(C(=O)Nc1ccc(C(F)(F)F)cc1)n1nc(-c2ccsc2Cl)ccc1=O` (stereo not shown) [Compound 24, 2-(3-(2-Chlorothiophen-3-yl)-6-oxopyridazin-1(6H)-yl)-N-(4-(trifluoromethyl)phenyl)propanamide] the “Activity 10 μM” value was “++ (activity >150% of a CFTR amplifier with compound at concentration shown and amplifier at 3 uM)”.
With `CC(C(=O)Nc1ccc(C(F)(F)F)cc1)n1nc(-c2cc(Cl)sc2Cl)ccc1=O` (stereo not shown) [Compound 25, 2-(3-(2,5-Dichlorothiophen-3-yl)-6-oxopyridazin-1(6H)-yl)-N-(4-(trifluoromethyl)phenyl)propanamide] the “Activity 10 μM” value was “+ (activity <150% of a CFTR amplifier with compound at concentration shown and amplifier at 3 uM)”.
`CC(C(=O)Nc1ccc(C(F)(F)F)cc1)n1nc(-c2csc(Cl)n2)ccc1=O` (stereo not shown) [Compound 26, 2-[3-(2-Chloro-1,3-thiazol-4-yl)-6-oxo-1,6-dihydropyridazin-1-yl]-N-[4-(trifluoromethyl)phenyl]propanamide] was tested, and the “Activity 10 μM” value was “+ (activity <150% of a CFTR amplifier with compound at concentration shown and amplifier at 3 uM)”.
In the case of `CC(C(=O)Nc1ccc(C(F)(F)F)cc1)n1nc(-c2cnc(Cl)s2)ccc1=O` (stereo not shown) [Compound 27, 2-[3-(2-Chloro-1,3-thiazol-5-yl)-6-oxo-1,6-dihydropyridazin-1-yl]-N-[4-(trifluoromethyl)phenyl]propanamide], the “Activity 10 μM” value is reported as “+ (activity <150% of a CFTR amplifier with compound at concentration shown and amplifier at 3 uM)”.
